Measurements published in patent US5770573A, “CS-1 peptidomimetics, compositions and methods of using the same” (Cytel Corporation, priority 1995, dated 1998).
Read-outs that look alike come from different tables or passages of the source. Square brackets hold non-standard residues; d marks the D form. Peptide text beside a SMILES is read from it. * marks the point of attachment. Cha = N[C@@H](CC1CCCCC1)C(=O)O; X15 = O=S(=O)(c1cccc2cccnc12)*; Morpholide = C1CN(*)CCO1; Piperidide = C1CCN(*)CC1; PhAc = O=C(Cc1ccccc1)*; X4 = CCN(CC)C(=O)CO*

Columns and labels:
[1] = tested on: delayed-type hypersensitivity murine model; assay: Adoptive transfer delayed type hypersensitivity in mice (oxazolone); format: in vivo, mouse; details: expanded study; versus vehicle alone; 6 mg/kg/day s.c. pump, 24 hours
Procedure: An adoptive transfer delayed-type hypersensitivity murine model has been developed using splenic T cells primed to oxazolone. This model is described in Elices et al., Clin. Exp. Rheum., 11 (Suppl. 8):577-580 (1993), whose procedures were followed here.
Thus, BALB/c mice were shaved on the belly and painted (50 μl on the belly and 5 μl on each paw) with three percent oxazolone in acetone/olive oil (4:1) at days zero and 1. At day 5, the mice were sacrificed, their spleens removed, and splenic T cells were obtained via nylon wool columns.
Normal saline or saline containing 25×10^6 /animal of the oxazolone-immune T cells were separately injected into naive mice. The mice were then challenged by painting 10 μl of 2 percent oxazolone onto one ear each. All procedures were carried out under sterile conditions and in endotoxin-free buffers.
Prior to challenge or saline injection, the mice were implanted with pumps that subcutaneously administered normal saline, normal saline containing the compound, Compound ID No. 896.52, N-phenylacetyl-Leu-Asp-Phe-D-Pro-NH2, or normal saline containing a compound with a scrambled sequence continually at 6 mg/kg/day for a 24-hour time period. The swelling diameter at the site of challenge or saline injection was measured with a microcaliper 24 hours thereafter.
An expanded study was carried out as described above except that a scrambled compound control was not used as a control for further inhibitor compounds of Table 1 with larger groups of mice. Statistical analyses were carried out versus injection of vehicle alone.

VLA-4 = VLA-4 (Homo sapiens, UniProt P05556+P13612); assay: In vitro binding inhibition of 51Cr-labeled Jurkat cells to solid phase-bound CS-1 compound (SEQ ID NO:1); format: cell-based; set-up: inflammatory cells that contain the VLA-4 receptor [Jurkat cells; host or cells: Jurkat (human T lymphoblastic line)
Outline: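 51Cr-labeled human Jurkat cells were preincubated with compound 30 min at about 22° C, then allowed to bind to wells coated with CS-1 peptide or CS-1-OVA for 30 min at 37° C. After washing, bound cells were lysed with SDS and counted. IC50 is the concentration halving binding, normalized to SEQ ID NO: 3.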

asthmatic rabbits = assay: Treatment of asthmatic rabbits (house dust mite antigen challenge); format: in vivo, rabbit
Procedure: Six New Zealand white rabbits were immunized with house dust mite antigen from birth through four months of age. Upon immunization, three rabbits received a single nebulizer administration of the inhibitor compound, Compound ID No. 1051.01, N-phenylacetyl-Leu-Asp-Phe-morpholinamide in aqueous 50 percent ethanol as diluent in an amount of 100 mg/kg, and the other three received diluent alone. All of the rabbits were challenged with house dust mite antigen about 15-30 minutes after administration of the compound, with those animals not receiving compound serving as controls.
Once immunized and challenged, the inflammatory state subsides to a basal level within about three weeks. The three animals used as controls were thereafter used as subjects for receipt of an inhibitor compound, and the three rabbits that initially received the compound can serve as controls.
Such a crossover study was done here. Thus, the three initial control rabbits were treated with the above inhibitor compound in the above diluent at a time more than three weeks after the above study, and the three previous recipients of the compound were administered the diluent alone. All six were than challenged again.
Initial pulmonary function, measured by dynamic compliance (Cdyn) and lung resistance (RL) , and bronchoalveolar lavage (BAL) to obtain an effector cell count, here eosinophils, were conducted prior to administration of the compound or diluent for both portions of this crossover study. Similar assays were then taken one-half hourly after challenge for six hours (early phase allergic reaction) and at 24 hours after challenge (late stage allergic reaction) for both portions of this study.
These studies were conducted as described by W. J. Metzger in CRC Handbook of Late Phase Reactions, W. Dorsch, ed., Chapter 35, CRC Press, Boca Raton, Fla. (1990) pages 347-362.
The results of this study for the pulmonary function parameters are shown in FIG. 4A and FIG. 4B, in which data for the challenged, inhibitor compound-treated animals are shown as open circles and data for the challenged, untreated, control animals are shown in blackened circles.

[2] = binding inhibition potency relative to standard compound of SEQ ID NO:3 = 1 (normalized IC50), about one-tenth or less assigned zero
[3] = 100 mg/kg nebulizer, late (24 hours)

VLA-4, sequence (P13612 34-1032): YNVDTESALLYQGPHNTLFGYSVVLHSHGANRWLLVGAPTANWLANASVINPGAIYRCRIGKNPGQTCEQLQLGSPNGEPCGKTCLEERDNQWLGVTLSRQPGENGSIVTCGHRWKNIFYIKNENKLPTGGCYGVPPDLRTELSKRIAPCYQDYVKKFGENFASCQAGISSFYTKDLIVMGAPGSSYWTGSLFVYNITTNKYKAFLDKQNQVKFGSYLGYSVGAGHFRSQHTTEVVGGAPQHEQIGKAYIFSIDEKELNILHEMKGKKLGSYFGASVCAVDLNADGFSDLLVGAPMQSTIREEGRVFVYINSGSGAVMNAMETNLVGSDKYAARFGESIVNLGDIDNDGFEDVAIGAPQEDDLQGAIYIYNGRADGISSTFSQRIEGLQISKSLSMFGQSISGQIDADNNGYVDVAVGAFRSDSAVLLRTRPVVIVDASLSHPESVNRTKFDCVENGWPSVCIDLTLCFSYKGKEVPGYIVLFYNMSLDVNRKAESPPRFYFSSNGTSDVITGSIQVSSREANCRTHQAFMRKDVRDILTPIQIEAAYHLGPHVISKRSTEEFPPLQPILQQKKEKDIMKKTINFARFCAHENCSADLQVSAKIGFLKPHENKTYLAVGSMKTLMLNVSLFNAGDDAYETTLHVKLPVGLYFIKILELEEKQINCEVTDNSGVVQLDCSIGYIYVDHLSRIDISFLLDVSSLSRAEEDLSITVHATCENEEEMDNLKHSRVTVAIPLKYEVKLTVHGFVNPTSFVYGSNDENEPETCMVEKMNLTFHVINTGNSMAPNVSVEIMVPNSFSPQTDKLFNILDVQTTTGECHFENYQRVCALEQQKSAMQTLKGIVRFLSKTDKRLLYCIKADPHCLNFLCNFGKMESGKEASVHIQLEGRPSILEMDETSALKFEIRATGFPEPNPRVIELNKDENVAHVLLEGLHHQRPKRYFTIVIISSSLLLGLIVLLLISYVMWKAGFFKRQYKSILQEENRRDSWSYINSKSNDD
VLA-4, sequence (P05556 21-798): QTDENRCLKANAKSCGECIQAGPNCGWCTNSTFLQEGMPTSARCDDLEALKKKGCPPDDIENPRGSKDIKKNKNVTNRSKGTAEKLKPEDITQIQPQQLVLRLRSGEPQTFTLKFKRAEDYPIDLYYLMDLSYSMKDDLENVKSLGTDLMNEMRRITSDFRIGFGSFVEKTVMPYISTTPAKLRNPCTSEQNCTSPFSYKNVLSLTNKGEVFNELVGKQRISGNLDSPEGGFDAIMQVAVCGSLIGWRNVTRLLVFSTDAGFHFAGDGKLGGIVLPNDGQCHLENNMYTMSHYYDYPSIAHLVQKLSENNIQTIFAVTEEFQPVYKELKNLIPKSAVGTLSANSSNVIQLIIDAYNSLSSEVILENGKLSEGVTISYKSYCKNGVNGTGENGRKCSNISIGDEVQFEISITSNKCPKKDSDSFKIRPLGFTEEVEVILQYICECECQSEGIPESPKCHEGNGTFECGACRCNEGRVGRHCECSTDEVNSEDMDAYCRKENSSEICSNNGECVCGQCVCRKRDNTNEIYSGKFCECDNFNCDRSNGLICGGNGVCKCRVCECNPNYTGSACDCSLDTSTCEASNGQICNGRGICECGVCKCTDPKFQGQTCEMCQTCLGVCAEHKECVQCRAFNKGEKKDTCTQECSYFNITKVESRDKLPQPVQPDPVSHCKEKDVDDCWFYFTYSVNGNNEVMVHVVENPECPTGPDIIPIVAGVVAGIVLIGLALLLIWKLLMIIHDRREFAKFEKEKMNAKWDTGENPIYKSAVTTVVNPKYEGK

## CC(C)C[C@H](NC(=O)Cc1ccccc1)C(=O)N[C@@H](CC(=O)O)C(=O)N[C@@H](Cc1ccccc1)C(=O)N1CCC(O)CC1 [1070.02]
[1]
  Percent Inhibition of post-challenge swelling: 29%
VLA-4; [2]
  Relative Potency: 604

## CC(C)C[C@H](NC(=O)Cc1ccccc1)C(=O)N[C@@H](CC(=O)O)C(=O)N[C@@H](Cc1ccccc1)C(=O)N1CCN(CC(=O)O)CC1 [1111.06]
[1]
  Percent Inhibition of post-challenge swelling: 30%
VLA-4; [2]
  Relative Potency: 2600

## CC(C)C[C@H](NC(=O)Cc1ccccc1)C(=O)N[C@@H](CC(=O)O)C(=O)N[C@@H](Cc1ccccc1)C(=O)N1CCOCC1 [1051.01] (PhAc-Leu-Asp-Phe-Morpholide)
Asthmatic rabbits; 100 mg/kg nebulizer, early (2-4 hours)
  % Reduction, RL, Early phase: 80.1%
Asthmatic rabbits; 100 mg/kg nebulizer, early (2-4 hours), versus challenged controls
  % Reduction, Cdyn, Early phase: 94.4%
Asthmatic rabbits; [3]
  % Reduction, Cdyn, Late phase: 86.6%
  % Reduction, RL, Late phase: 82.6%
Asthmatic rabbits; after 24 hours, versus untreated, challenged animals
  reduction in eosinophils (BAL count): 88.1%
Asthmatic rabbits; six hours after challenge
  dynamic compliance Cdyn over six hours (FIG. 4A): stayed at about the initial value
  lung resistance RL over six hours (FIG. 4B): remained between the initial value and about 200% of that value
VLA-4; [2]
  Relative Potency: 709

## CC[C@H](C)[C@H](N)C(=O)N[C@@H](CC(C)C)C(=O)N[C@@H](CC(=O)O)C(=O)N[C@H](C(=O)N1CCC[C@H]1C(N)=O)[C@@H](C)CC [926.17] (H-ILDIP-NH2)
VLA-4
  Relative Potency: .21

## NC(=O)[C@H]1CCCN1C(=O)[C@H](Cc1ccccc1)NC(=O)[C@H](CC(=O)O)NC(=O)[C@H](CC1CCCCC1)NC(=O)Cc1ccccc1 [1160.01] (PhAc-[Cha]DF[dP]-NH2)
VLA-4; [2]
  Relative Potency: 213

## CC(C)C[C@H](NC(=O)Cc1ccccc1)C(=O)N[C@@H](CC(=O)O)C(=O)N[C@@H](Cc1ccc(O)cc1)C(=O)N1CCC[C@H]1C(N)=O [1036.01] (PhAc-LDYP-NH2)
VLA-4; [2]
  Relative Potency: 405

## CC(C)C[C@@H]1NC(=O)N([C@@H](CC(=O)O)C(=O)N[C@@H](Cc2ccccc2)C(=O)N2CCCCC2)C1=O [1047.05]
VLA-4
  Relative Potency: 12.5

## CC(C)C[C@H](NC(=O)c1ccccn1)C(=O)N[C@@H](CC(=O)O)C(=O)N[C@H](C(=O)N1CCC[C@@H]1C(N)=O)C(C)C [896.54]
VLA-4
  Relative Potency: 13

## NC(=O)[C@H]1CCCN1C(=O)[C@H](Cc1ccccc1)NC(=O)[C@H](CC(=O)O)NC(=O)CCCCC[N+](=O)[O-] [1056.11]
VLA-4
  Relative Potency: 0

## CC(C)C[C@H](NS(=O)(=O)c1cccc2cccnc12)C(=O)N[C@@H](CC(=O)O)C(=O)N[C@@H](Cc1ccccc1)C(=O)N1CCC[C@@H]1C(N)=O [951.07] (X15-LDF[dP]-NH2)
VLA-4
  Relative Potency: 1.57

## CC(C)C[C@H](NC(=O)Cc1ccccc1)C(=O)N[C@@H](CC(=O)O)C(=O)N[C@@H](Cc1c[nH]c2ccccc12)C(=O)N1CCC[C@@H]1C(N)=O [896.60] (PhAc-LDW[dP]-NH2)
VLA-4; [2]
  Relative Potency: 131

## CC(C)C[C@H](N)C(=O)N[C@@H](CC(=O)O)C(=O)N[C@@H](Cc1ccccc1)C(=O)N1CCCCC1 [1047.09] (H-Leu-Asp-Phe-Piperidide)
VLA-4
  Relative Potency: 0.01

## CC(C)C[C@H](NC(=O)[C@H](N)Cc1ccccc1)C(=O)N[C@@H](CC(=O)O)C(=O)N[C@H](C(=O)N1CCC[C@@H]1C(N)=O)C(C)C [926.05] (H-[dF]LDV[dP]-NH2)
VLA-4
  Relative Potency: .94

## CC(C)C[C@H](NC(=O)Cc1ccccc1)C(=O)N[C@@H](CC(=O)O)C(=O)NC1CCCCN(CC(N)=O)C1=O (stereo partly drawn) [1057.06]
VLA-4; [2]
  Relative Potency: 97

## CC(C)C[C@H](NC(=O)Cc1ccccc1)C(=O)N[C@@H](CC(=O)O)C(=O)NC(c1ccccc1)c1ccccc1 [997.01]
VLA-4; [2]
  Relative Potency: 2.66

## CC(C)C[C@H](NC(=O)Cc1ccccc1)C(=O)N[C@@H](CC(=O)O)C(=O)N[C@@H](Cc1ccccc1)C(=O)N1C[C@@H](O)[C@@H](O)C1 [1070.01]
VLA-4; [2]
  Relative Potency: 194

## CC(C)C[C@H](NC(=O)Cc1ccccc1)C(=O)N[C@@H](CC(=O)O)C(=O)N[C@@H](Cc1ccccc1)C(=O)NCC(=O)N1CCOCC1 [1051.04] (PhAc-LDFG-Morpholide)
VLA-4; [2]
  Relative Potency: 3.13

## CC(C)C[C@H](NC(=O)Cc1ccccc1)C(=O)N[C@@H](CC(=O)O)C(=O)N[C@@H](Cc1ccccc1)C(N)=O [997.12] (PhAc-Leu-Asp-Phe-NH2)
VLA-4; [2]
  Relative Potency: .45

## CCN(CC)C(=O)COC(=O)C[C@H](NC(=O)[C@H](CC(C)C)NC(=O)Cc1ccccc1)C(=O)N[C@@H](Cc1ccccc1)C(=O)N1CCC[C@@H]1C(N)=O [1068.13] (PhAc-LD(X4)F[dP]-NH2)
VLA-4; relative to SEQ ID NO:3 = 1, potency before the prodrug compound is enzymatically converted to an active form
  Relative Potency (prodrug compound): 0

## CC[C@@H](C)[C@@H](N)C(=O)N[C@@H](CC(C)C)C(=O)N[C@@H](CC(=O)O)C(=O)N[C@H](C(=O)N1CCC[C@@H]1C(N)=O)C(C)C [926.03]
VLA-4
  Relative Potency: 1.83

## CC(C)C[C@H](NC(=O)c1ccccc1)C(=O)N[C@@H](CC(=O)O)C(=O)N[C@H](C(=O)N1CCC[C@H]1C(N)=O)C(C)C [896.35]
VLA-4; [2]
  Relative Potency: 16
